From paper PMC11125359 (Pharmaceuticals, 2024) come the findings set out here.

The structures appear in SMILES notation.

As usually defined, the inhibition is the share of the control response that was lost under treatment. Low readings indicate a weak effect, high ones a strong effect. A word on the IC50: it is the concentration that inhibits the measured activity by half.

Data set [1] can be described thus: ABTS radical scavenging assay. The following applies: equal concentrations (1000 µg/mL); mean ± SE.
Procedure: (§1) All in vitro biological activities were assessed in the tested compounds at equal concentrations (1000 µg/mL). All assays were carried out in triplicate.
In vitro biological activities
(§2) The total antioxidant capacity (TAC) was determined by analyzing the green phosphate/Mo5+ complex at a wavelength (λ) of 695 nm, following the procedure described by Prieto
(§3) et al. Samples (at each concentration) were mixed with a reagent solution containing 0.3 N sulfuric
(§4) acid, 28 mM sodium phosphate, and 4 mM ammonium molybdate. Methanol (80%) was used in place
(§5) of the sample for the blank. The tubes were sealed and incubated in a boiling water bath for 90
(§6) minutes. After cooling to room temperature, the absorbance was measured at 695 nm against the
(§7) blank. Ascorbic acid was used at the same concentrations as a standard. The antioxidant capacity was
(§8) expressed as mg gallic acid equivalent per gram weight.
(§9) The iron reducing power was determined as µg/mL using the method proposed by Oyaizu
(§10) In brief, 1ml of the tested sample (at each concentration) was combined with 1mL of 200mM
(§11) sodium phosphate buffer (pH 6.6) and 1mL of 1% potassium ferricyanide. The mixture was then
(§12) incubated at 50°C for 20 minutes, followed by the addition of 1mL of trichloroacetic acid (10%). After
(§13) centrifugation at 2000rpm for 10 minutes, the upper layer solution (2.5 mL) was mixed with 2.5 mL of double deionized water and 1mL of fresh ferric chloride (0.1%). The absorbance was measured at
(§14) 700nm against a blank prepared without the sample. Ascorbic acid was used at the same
(§15) concentrations as a standard. A high absorbance at 700nm indicates a higher reducing power in the
(§16) The 1,1-Diphenyl-2-picryl-hydrazyl (DPPH) radical scavenging activities were evaluated using the method described by Rahman et al. An antioxidant substance capable of donating a
(§17) hydrogen atom to a solution containing DPPH- can reduce the stable free radical, causing the solution
(§18) to change color from violet to pale yellow. The remaining DPPH- radical was quantified by
(§19) nm using a spectroscopic method. Two milliliters of a DPPH solution (100 µM) in ethanol were mixed
(§20) with 2 mL of the sample (at each concentration). The reaction mixture for each concentration was
(§21) thoroughly vortexed and then incubated in the dark at room temperature for 30 minutes. The
(§22) absorbance was then measured spectrophotometrically at 518 nm against a blank (ethanol). For the
(§23) control, 2 mL of ethanol was added instead of the sample and run simultaneously with the test.
(§24) Ascorbic acid was used at the same concentrations as a positive control. Percent inhibition of the
(§25) DPPH free radical was calculated. The median inhibitory concentration (IC 50) for each tested
(§26) The procedure for the 2,2'-azinobis-(3-ethylbenzothiazoline-6-sulfonic acid) (ABTS) assay
(§27) potassium persulfate solution (2.4 mM). The working solution was prepared by mixing the two stock
(§28) solutions in equal quantities and allowing them to react at room temperature in a dark place for 14
(§29) hours. The solution was then diluted by mixing 1 mL of ABTS solution with 60 mL of methanol to
(§30) was prepared for each assay. The tested samples (at each concentration) were allowed to react with 1
(§31) mL of the ABTS solution, and the absorbance was taken at 734 nm after 7 minutes using a
(§32) spectrophotometer. The ABTS scavenging capacities of the samples were compared with that of
(§33) ascorbic acid (at the same concentrations).
The target in data set [2] is acetylcholinesterase (AChE) (Homo sapiens, UniProt P22303). Put plainly: biochemical. As to conditions: same concentration (1000 µg/mL); mean ± SE.
In the next data set the test system is α-glucosidase. Briefly: α-Glucosidase inhibition (anti-diabetic). The class given is biochemical. The following applies: equal concentrations (1000 µg/mL); mean ± SE.
Data set [3] can be described thus: Iron-reducing power (IRP). The following applies: equal concentrations (1000 µg/mL); mean ± SE, three replicates.
Procedure: as §1
In vitro biological activities
as §2, §3, §4, §5, §6, §7, §8, §9, §10, §11, §12, §13, §14, §15, §16, §17, §18, §19, §20, §21, §22, §23, §24, §25, §26, §27, §28, §29, §30, §31, §32, §33
A short description of data set [4]: DPPH radical-scavenging activity. As to conditions: read-out: DPPH (IC50); mean ± SE, three replicates.
Procedure: In vitro biological activities
as §16, §17, §18, §19, §20, §21, §22, §23, §24, §25
A short description of data set [5]: Total antioxidant capacity (TAC), phosphomolybdenum method. The following applies: equal concentrations (1000 µg/mL); mean ± SE, three replicates.
Procedure: as §1
In vitro biological activities
as §2, §3, §4, §5, §6, §7, §8, §9, §10, §11, §12, §13, §14, §15, §16, §17, §18, §19, §20, §21, §22, §23, §24, §25, §26, §27, §28, §29, §30, §31, §32, §33
For data set [6], the target named is bovine serum albumin (BSA) (Bos taurus, UniProt P02769). As to conditions: equal concentrations (1000 µg/mL); mean ± SE.
The test system of data set [7] is proteinase enzyme (trypsin). Briefly: Proteinase enzyme inhibition (anti-inflammatory). The class given is biochemical. The following applies: equal concentrations (1000 µg/mL); mean ± SE.
The next data set relates to α-amylase. Briefly: α-Amylase inhibition (anti-diabetic). The class given is biochemical. As to conditions: equal concentrations (1000 µg/mL); mean ± SE.

Sequence of bovine serum albumin (BSA) (P02769 25-607): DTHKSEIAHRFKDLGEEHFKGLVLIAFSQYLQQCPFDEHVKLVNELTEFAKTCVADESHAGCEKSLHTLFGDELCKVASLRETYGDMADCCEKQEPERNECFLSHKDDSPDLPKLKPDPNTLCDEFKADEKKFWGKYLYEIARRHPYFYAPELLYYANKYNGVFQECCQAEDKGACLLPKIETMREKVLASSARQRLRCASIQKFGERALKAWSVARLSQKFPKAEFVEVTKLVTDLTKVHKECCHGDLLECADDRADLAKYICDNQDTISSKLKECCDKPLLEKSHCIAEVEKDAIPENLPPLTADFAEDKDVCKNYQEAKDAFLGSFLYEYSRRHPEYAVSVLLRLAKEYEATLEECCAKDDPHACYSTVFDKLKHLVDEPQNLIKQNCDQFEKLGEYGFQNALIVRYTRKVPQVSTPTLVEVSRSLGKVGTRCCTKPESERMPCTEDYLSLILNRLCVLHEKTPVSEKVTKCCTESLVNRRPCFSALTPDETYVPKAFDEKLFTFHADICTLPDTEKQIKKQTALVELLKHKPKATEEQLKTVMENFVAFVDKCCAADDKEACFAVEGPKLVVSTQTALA
Sequence of acetylcholinesterase (AChE) (P22303 32-614, species assumed): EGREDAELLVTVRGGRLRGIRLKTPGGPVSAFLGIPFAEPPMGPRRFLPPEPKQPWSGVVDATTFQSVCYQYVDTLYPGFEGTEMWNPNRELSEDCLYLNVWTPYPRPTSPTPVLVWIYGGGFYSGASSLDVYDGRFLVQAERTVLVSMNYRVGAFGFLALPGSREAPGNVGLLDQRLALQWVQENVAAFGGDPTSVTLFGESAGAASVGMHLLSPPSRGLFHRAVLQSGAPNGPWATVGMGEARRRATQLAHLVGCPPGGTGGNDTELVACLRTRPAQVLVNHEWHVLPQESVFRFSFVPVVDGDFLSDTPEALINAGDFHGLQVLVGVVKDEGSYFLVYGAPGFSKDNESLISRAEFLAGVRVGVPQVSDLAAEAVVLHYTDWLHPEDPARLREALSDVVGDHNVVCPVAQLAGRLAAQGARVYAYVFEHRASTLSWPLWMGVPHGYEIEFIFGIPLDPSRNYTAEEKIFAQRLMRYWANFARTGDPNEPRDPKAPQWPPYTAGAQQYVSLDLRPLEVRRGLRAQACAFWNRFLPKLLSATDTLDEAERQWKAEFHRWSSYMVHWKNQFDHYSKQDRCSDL

Consider `Cc1c(C=Nc2[nH]nc(Nc3ccccc3)c2C(=O)Nc2ccc(Cl)cc2)c(=O)n(-c2ccccc2)n1C` [7c], for which the “ABTS (%) inhibition” value in data set [1] was 43.27 ± 0.03%. Besides, the inhibition at 1000 µg/mL in [2] was 24.11 ± 0.01%. In the data set with α-glucosidase, the “Inhibition (%) α-Glucosidase” value worked out at 15.41 ± 0.03%. Moreover, the “Iron-Reducing Power (IRP)” value in data set [3] is given as 19.65 ± 0.04 µg/mL. In data set [4], the IC50 is 40.72 ± 0.02 µM. Also, the “Total Antioxidant Capacity (TAC)” value in data set [5] amounted to 29.96 ± 0.11 mg Gallic Acid/g. Also, the “Inhibition (%) Protein Denaturation” value in [6] was 15.38 ± 0.02%. The “Inhibition (%) Proteinase” value in data set [7] is given as 13.38 ± 0.02%. Besides, the “Inhibition (%) α-Amylase” value in the data set with α-amylase stood at 17.91 ± 0.03%.
Consider `O=C(Nc1ccc(Cl)cc1)c1c(Nc2ccccc2)n[nH]c1/N=C/c1ccc(N2CCCCC2)cc1` [5c], for which, in data set [1], the “ABTS (%) inhibition” value is recorded as 43.34 ± 0.03%. This compound gave an inhibition at 1000 µg/mL in data set [2] of 24.15 ± 0.01%. In addition, the “Inhibition (%) α-Glucosidase” value in the data set on α-glucosidase stood at 15.43 ± 0.03%. The “Iron-Reducing Power (IRP)” value in data set [3] was 19.68 ± 0.04 µg/mL. Moreover, the IC50 in data set [4] turned out to be 42.86 ± 0.02 µM. The “Total Antioxidant Capacity (TAC)” value in [5] was found to be 30.01 ± 0.11 mg Gallic Acid/g. Also, the “Inhibition (%) Protein Denaturation” value in data set [6] came out at 15.41 ± 0.02%. Besides, in data set [7], the “Inhibition (%) Proteinase” value is 13.40 ± 0.02%. Moreover, in the data set with α-amylase, the “Inhibition (%) α-Amylase” value worked out at 17.94 ± 0.03%.
For `COc1ccc(Nc2n[nH]c(N=Cc3c(C)n(C)n(-c4ccccc4)c3=O)c2C(=O)Nc2ccc(C)cc2)cc1` [7e], the “ABTS (%) inhibition” value in data set [1] is reported as 22.65 ± 0.01%. In addition, in data set [2], at 1000 µg/mL the inhibition was 12.62 ± 0.01%. In addition, the “Inhibition (%) α-Glucosidase” value in the data set on α-glucosidase was determined as 8.07 ± 0.02%. The “Iron-Reducing Power (IRP)” value in [3] is 10.29 ± 0.02 µg/mL. Besides, the IC50 in data set [4] was found to be 51.98 ± 0.03 µM. The “Total Antioxidant Capacity (TAC)” value in [5] turned out to be 15.68 ± 0.06 mg Gallic Acid/g. Besides, the “Inhibition (%) Protein Denaturation” value in data set [6] was 8.05 ± 0.01%. Further, the “Inhibition (%) Proteinase” value in [7] is 4.81 ± 0.01%. In addition, in the data set on α-amylase, the “Inhibition (%) α-Amylase” value was found to be 9.38 ± 0.02%.
As for `COc1ccc(Nc2n[nH]c(N=Cc3c(C)nn(-c4ccccc4)c3Cl)c2C(=O)Nc2ccc(Cl)cc2)cc1` [6f], the “ABTS (%) inhibition” value in data set [1] was 44.00 ± 0.03%. 1000 µg/mL produced 24.52 ± 0.01% inhibition in data set [2]. The “Inhibition (%) α-Glucosidase” value with α-glucosidase was 15.67 ± 0.03%. Besides, the “Iron-Reducing Power (IRP)” value in data set [3] worked out at 19.98 ± 0.04 µg/mL. Besides, the IC50 in data set [4] is 37.6 ± 0.02 µM. Further, in [5], the “Total Antioxidant Capacity (TAC)” value is 30.47 ± 0.11 mg Gallic Acid/g. In data set [6], the “Inhibition (%) Protein Denaturation” value worked out at 15.64 ± 0.02%. Moreover, the “Inhibition (%) Proteinase” value in [7] is given as 13.60 ± 0.02%. Further, in the data set with α-amylase, the “Inhibition (%) α-Amylase” value came out at 18.22 ± 0.03%.
Take `COc1ccc(Nc2n[nH]c(N=Cc3c(C)nn(-c4ccccc4)c3Cl)c2C(=O)Nc2ccc(C)cc2)cc1` [6e]: the “ABTS (%) inhibition” value in data set [1] stood at 44.08 ± 0.03%. This compound also returned an inhibition at 1000 µg/mL in [2] of 24.56 ± 0.01%. In the data set with α-glucosidase, the “Inhibition (%) α-Glucosidase” value was found to be 15.69 ± 0.03%. Moreover, the “Iron-Reducing Power (IRP)” value in data set [3] is on record as 20.02 ± 0.04 µg/mL. Moreover, the IC50 in data set [4] is 38.94 ± 0.02 µM. In addition, the “Total Antioxidant Capacity (TAC)” value in data set [5] is listed as 30.52 ± 0.11 mg Gallic Acid/g. The “Inhibition (%) Protein Denaturation” value in [6] turned out to be 15.67 ± 0.02%. In addition, the “Inhibition (%) Proteinase” value in data set [7] is on record as 13.63 ± 0.02%. Moreover, the “Inhibition (%) α-Amylase” value in the data set with α-amylase is listed as 18.25 ± 0.03%.
In the case of `C[C@H]1O[C@H](O[C@H]2[C@H](O)[C@@H](O)[C@@H](O[C@H]3[C@H](O)[C@@H](O)C(O)O[C@@H]3CO)O[C@@H]2CO)[C@H](O)[C@@H](O)[C@@H]1N[C@H]1C=C(CO)[C@@H](O)[C@H](O)[C@H]1O` (stereo partly drawn) [Acarbose, reference compound], the “Inhibition (%) α-Glucosidase” value with α-glucosidase was 53.94 ± 0.01%. Moreover, the “Inhibition (%) α-Amylase” value with α-amylase came to 76.58 ± 0.01%.
With `O=C1O[C@H]([C@@H](O)CO)C(O)=C1O` [Ascorbic Acid, reference compound], in data set [1], the “ABTS (%) inhibition” value is recorded as 41.25 ± 0.01%. Further, in data set [3], the “Iron-Reducing Power (IRP)” value worked out at 71.85 ± 0.05 µg/mL. Also, the IC50 in data set [4] stood at 29.3 ± 0.01 µM. Besides, the “Total Antioxidant Capacity (TAC)” value in data set [5] is recorded as 79.10 ± 0.11 mg Gallic Acid/g.
